Measurements from ChEMBL document CHEMBL5143558, “Synthesis of sorbicillinoid analogues with anti-inflammation activities” (Bioorg Med Chem, 2022).
Activity calls are given as the source filed them. The rule behind the calls is not given here.

Experiments:
[1] = Toxicity in mouse RAW264.7 cells assessed as reduction in cell vaibility at 10 uM; format: cell-based; details: raw264.7, 10 µM
RAW264.7 [2] = test: Anti-inflammatory activity in mouse RAW264.7 cells assessed as inhibition of LPS-induced iNOS protein expression at 10 uM incubated for 24 hrs by Western blot analysis; format: functional, cell-based
RAW264.7 [3] = test: Anti-inflammatory activity in mouse RAW264.7 cells assessed as inhibition of LPS-induced NO production at 10 uM; format: functional, cell-based
RAW264.7 [4] = test: Anti-inflammatory activity in mouse RAW264.7 cells assessed as inhibition of LPS-induced NO production at 20 uM; format: functional, cell-based
RAW264.7 [5] = test: Anti-inflammatory activity in mouse RAW264.7 cells assessed as inhibition of LPS-induced p-NFkappaB protein expression at 10 uM incubated for 24 hrs by Western blot analysis; format: functional, cell-based
RAW264.7 [6] = test: Anti-inflammatory activity in mouse RAW264.7 cells assessed as inhibition of LPS-induced iNOS protein expression at 1 to 20 uM incubated for 24 hrs by Western blot analysis; format: functional, cell-based; details: dose 1-20 µM, DDE = dose-dependent effect
[7] = Toxicity in mouse RAW264.7 cells assessed as reduction in cell vaibility at 20 uM incubated for 24 hrs; format: cell-based; details: raw264.7, 24 h
RAW264.7 [8] = test: Anti-inflammatory activity in mouse RAW264.7 cells assessed as inhibition of LPS-induced NO production at 1 to 20 uM incubated for 24 hrs; format: functional, cell-based; details: dose 1-20 µM, DDE = dose-dependent effect

SMILES	Activity [1]	inhibition (RAW264.7 [2])	inhibition (RAW264.7 [3])	inhibition (RAW264.7 [4])	inhibition (RAW264.7 [5])	inhibition (RAW264.7 [6])	Activity [7]	inhibition (RAW264.7 [8])
COc1cc(OC)c(C(=O)/C=C/c2cc(OC)c(OC)c(OC)c2)cc1C	Non-Toxic	Active	Active	–	–	–	–	–
C/C=C/C(=O)c1cc(C)c(O)c(C)c1O	Non-Toxic	Active	Active	–	–	–	–	–
COc1ccc(/C=C/C(=O)c2cc(C)c(OC)cc2OC)cc1	Non-Toxic	–	–	–	–	–	–	–
COc1cc(O)c(C(=O)/C=C/c2ccc(F)cc2)cc1C	Non-Toxic	Active	Active	–	–	–	–	–
Cc1cc(C(=O)/C=C/c2ccc(Cl)cc2)c(O)c(C)c1OC(=O)/C=C/c1ccc(Cl)cc1	Non-Toxic	Active	–	–	–	–	–	–
C/C=C/C=C/C(=O)Oc1ccc(C)c(OC(=O)/C=C/C=C/C)c1C	Non-Toxic	–	–	–	–	–	–	–
COc1cc(/C=C/C(=O)c2cc(C)c(OC)c(C)c2OC)cc(OC)c1OC	Non-Toxic	Active	Active	–	–	–	–	–
Cc1cc(C(=O)/C=C/c2ccccc2)c(O)cc1O	Non-Toxic	Active	Active	–	–	–	–	–
C[C@]12CCC(=O)C=C1CC[C@@H]1[C@@H]2[C@@H](O)C[C@@]2(C)[C@H]1CC[C@]2(O)C(=O)CO	–	–	–	Active	–	–	–	–
COc1cc(/C=C/C(=O)CC(=O)/C=C/c2ccc(O)c(OC)c2)ccc1O	–	–	–	Active	–	–	–	–
C/C=C/C=C/C(=O)c1cc(C)c(O)c(C)c1O	Non-Toxic	–	Active	–	Active	–	–	–
C/C=C/C(=O)c1cc(C)c(OC)c(C)c1OC	Non-Toxic	Active	Active	–	–	–	–	–
Cc1cc(C(=O)/C=C/c2ccccc2)c(O)c(C)c1O	Non-Toxic	Active	Active	–	Active	–	–	–
C/C=C/C=C/C(=O)Oc1c(C)cc(C(=O)/C=C/C=C/C)c(O)c1C	Non-Toxic	Active	Active	–	–	–	–	–
C/C=C/C(=O)c1cc(C)c(OC)cc1OC	Non-Toxic	Active	Active	–	–	–	–	–
COc1cc(OC)c(C(=O)/C=C/c2ccccc2)cc1C	Non-Toxic	Active	Active	–	–	–	–	–

SMILES	Activity [1]	inhibition (RAW264.7 [2])	inhibition (RAW264.7 [3])	inhibition (RAW264.7 [4])	inhibition (RAW264.7 [5])	inhibition (RAW264.7 [6])	Activity [7]	inhibition (RAW264.7 [8])
CC(C)=CC(=O)Oc1ccc(C)c(OC(=O)C=C(C)C)c1C	Non-Toxic	–	–	–	Active	–	–	–
CC(C)=CC(=O)Oc1c(C)cc(C(=O)C=C(C)C)c(O)c1C	Non-Toxic	Active	Active	–	–	–	–	–
Cc1cc(C(=O)/C=C/c2ccc3c(c2)OCO3)c(O)c(C)c1O	Non-Toxic	Active	–	–	–	–	–	–
COc1cc(OC)c(C(=O)/C=C/c2ccc(F)cc2)cc1C	Non-Toxic	Active	Active	–	–	–	–	–
Cc1cc(C(=O)/C=C/c2ccc(F)cc2)c(O)c(C)c1OC(=O)/C=C/c1ccc(F)cc1	Non-Toxic	Active	–	–	–	–	–	–
Cc1cc(C(=O)/C=C/c2ccc(F)cc2)c(O)c(C)c1O	Non-Toxic	Active	Active	–	–	Dde	Non-Toxic	Dde
Cc1cc(C(=O)/C=C/c2ccc(F)cc2)c(O)cc1O	Non-Toxic	Active	Active	–	–	–	–	–
COc1ccc(/C=C/C(=O)c2cc(C)c(O)c(C)c2O)cc1	Non-Toxic	Active	Active	–	–	–	–	–
C/C=C/C(=O)c1cc(C)c(O)cc1O	Non-Toxic	Active	Active	–	–	–	–	–
Cc1cc(C(=O)CCc2ccccc2)c(O)c(C)c1O	Non-Toxic	–	–	–	Active	–	–	–
Cc1ccc(/C=C/C(=O)c2cc(C)c(O)c(C)c2O)cc1	Non-Toxic	Active	Active	–	–	–	–	–
COc1cc(/C=C/C(=O)c2cc(C)c(O)c(C)c2O)cc(OC)c1OC	Non-Toxic	Active	Active	–	–	Dde	Non-Toxic	Dde
COc1cc(O)c(C(=O)/C=C/c2ccccc2)cc1C	Non-Toxic	Active	Active	–	–	–	–	–
Cc1ccc(OC(=O)/C=C/c2ccc(Cl)cc2)c(C)c1OC(=O)/C=C/c1ccc(Cl)cc1	Non-Toxic	Active	Active	–	–	–	–	–
C/C=C/C(=O)Oc1c(C)cc(C(=O)/C=C/C)c(O)c1C	Non-Toxic	Active	Active	–	–	–	–	–
